Assay results from US4916217A, “Phosphorus containing derivatives of epipodophyllotoxin” (priority 1987, dated 1990).
≈ marks a conversion by molar mass, not a printed value. Where “and” joins values, the source holds several entries; their conditions need not be identical. Equal values may be shown once.

Columns and labels:
B16-F10 murine melanoma = assay: in vitro cytotoxicity assay, B16-F10; format: cell-based; details: 50% inhibition of cell growth, etoposide values (in parentheses) from the same run
Procedure: (§1) The test data involves a cytotoxicity assay versus various murine and human tumors, and in vivo evaluation against P-388 leukemia and B16 melanoma in mice.
(§2) The in vitro cytotoxicity assay involved growing various mammalian tumor cells, including human tumor cells, on microtitre plates employing established tissue culture methods. The concentration of each compound required to inhibit cell growth by 50% (IC50) was then determined by a four-fold serial dilution technique. The validity of the method has been supported by a report published in the "Proceedings of the American Association for Cancer Research", Vol. 25, 328, p. 1891 (1984). Tumor cells of the following types were employed for each compound tested: B16-F10 murine melanoma; Moser human colon; M109 murine lung; and three human colon tumor cell lines namely HCT-116, HCT-VM, and HCT-VP, the latter two being resistant to teniposide (VM) and etoposide (VP). A wide range of IC50 values was observed, and quantitative comparisons amongst test compounds or against the etoposide control values were not possible.

[1] = tested on: HCT-116 human colon tumor cell line; assay: in vitro cytotoxicity assay, HCT-116; format: cell-based; details: 50% inhibition of cell growth; etoposide values (in parentheses) from the same run
Procedure: as §1, §2

[2] = tested on: HCT-VM human colon tumor cell line; assay: in vitro cytotoxicity assay, HCT/VM (teniposide resistant); format: cell-based; details: 50% inhibition of cell growth; etoposide values (in parentheses) from the same run
Procedure: as §1, §2

[3] = tested on: HCT-VP human colon tumor cell line; assay: in vitro cytotoxicity assay, HCT/VP (etoposide resistant); format: cell-based; details: 50% inhibition of cell growth; etoposide values (in parentheses) from the same run
Procedure: as §1, §2

Moser human colon = assay: in vitro cytotoxicity assay, Moser; format: cell-based; details: 50% inhibition of cell growth; etoposide values (in parentheses) from the same run
Procedure: as §1, §2

P-388 murine leukemia = assay: P-388 murine leukemia, in vivo antitumor activity; parameters: species or system CDF1 female mice; Average Weight Change: unit: g; details: for Average Weight Change / Maximum Effect % T/C: P-388, i.p.; for effectiveness relative to etoposide (% T/C): P-388, days 5 and 8 protocol
Procedure: The test protocol involved CDF1 female mice implanted intraperitoneally with a tumor inoculum of 10^6 ascites cells of P-388 murine leukemia and treated with various doses of a test compound, or with etoposide. The compounds were administered by intraperitoneal injection on various schedules. Groups of four mice were used for each dosage schedule and amount. A group of ten saline treated control mice was included in each series of experiments, and etoposide treated groups of six were included as a positive control. Thirty one, 47, and 49 day protocols were employed with the mean survival time in days being determined for each group of mice and the number of survivors at the end of the period being noted. The mice were weighed before treatment and again on day 5 or day 6. Mice weighing 20 grams each were employed and a loss in weight of up to approximately 2 grams was not considered excessive. The results are arranged in Table II and were determined in terms of % T/C which is the ratio of the mean survival time of the treated group to the mean survival time of the saline treated control group times 100. The saline treated control animals usually died within nine days. The "maximum effect" in the table is expressed as % T/C and the dose giving that effect is reported. Two different dosage regimens were employed. In one, the first dose of test drug was given on Day 1, the day of tumor inoculation, and second was given on Day 5. In the other, the first dose of test drug was given on Day 5 and a second dose on Day 8. According to the latter protocol, the etoposide control % T/C values are lower than according to the former protocol indicating a more stringent test regimen.

B16 melanoma = assay: B16 melanoma, in vivo antitumor activity; parameters: species or system BDF1 female mice; details: for % T/C: B16 melanoma s.c.
[4] = tested on: variety of cancers including small cell lung cancer, non-lymphocytic leukemia, and nonseminomatous testicular cancer; details: AMA Drug Evaluations, 5th Edition, 1983; cited from earlier work
M109 murine lung = assay: in vitro cytotoxicity assay, M109; format: cell-based; details: 50% inhibition of cell growth; etoposide values (in parentheses) from the same run
Procedure: as §1, §2

[5] = 40 mg/kg, treatment days 1 and 5
[6] = 60 mg/kg, treatment days 1 and 5
[7] = 60 mg/kg, treatment days 5 and 8
[8] = 120 mg/kg, treatment days 1 and 5
[9] = 160 mg/kg, treatment days 5 and 8
[10] = 200 mg/kg, treatment days 5 and 8

Row | Molecule | IC50 B16-F10 (B16-F10 murine melanoma) | IC50 HCT-116 [1] | IC50 HCT/VM [2] | IC50 HCT/VP [3] | IC50 Moser (Moser human colon) | activity in the treatment of cancers [4] | Average Weight Change (P-388 murine leukemia; [8]) | Maximum Effect % T/C (P-388 murine leukemia; [8]) | IC50 M109 (M109 murine lung) | effectiveness relative to etoposide (% T/C) (P-388 murine leukemia) | other results
1 | COc1cc([C@@H]2c3cc4c(cc3[C@@H](O[C@@H]3O[C@@H]5CO[C@@H](C)O[C@H]5[C@H](O)[C@H]3O)[C@H]3COC(=O)[C@H]23)OCO4)cc(OC)c1O [Etoposide, reference compound] | 1.9 µg/mL (≈ 3.23 µM) | 2.1 µg/mL and 2.7 µg/mL | 6.1 µg/mL and 3.1 µg/mL | 30 µg/mL and 41 µg/mL | 38 µg/mL and 39 µg/mL | active | – | – | – | – | IC50 B16-F10 (B16-F10 murine melanoma; listed as etoposide): 9 to 12 µg/mL; Average Weight Change (P-388 murine leukemia; [5]): -1.9; Maximum Effect % T/C (P-388 murine leukemia; [5]): > 450 % T/C; Average Weight Change (P-388 murine leukemia; [6]): -0.4; Maximum Effect % T/C (P-388 murine leukemia; [6]): > 573 % T/C; Average Weight Change (P-388 murine leukemia; [7]): +2.1; Maximum Effect % T/C (P-388 murine leukemia; [7]): 280 % T/C; % T/C (B16 melanoma; i.p., 100 mg/kg): > 177
2 | CCP1(CC)(CC)Oc2cc([C@@H]3c4cc5c(cc4[C@@H](O[C@@H]4O[C@@H]6CO[C@@H](C)O[C@H]6[C@H](O)[C@H]4O)[C@H]4COC(=O)[C@H]34)OCO5)cc(OC)c2O1 [Example 1, ETOPOSIDE-3',4'-DIOXATRIETHYLPHOSPHORANE] | – | 47 µg/mL and 46 µg/mL | 56 µg/mL and 45 µg/mL | 108 µg/mL and 89 µg/mL | 64 µg/mL and 85 µg/mL | – | -0.7 | > 544 % T/C | – | – | activity against B16 melanoma (prolongation of survival) (B16 melanoma; B16 melanoma implanted subcutaneously, i.p. dosage): active; % T/C (B16 melanoma; i.p. dosage, 40 mg/kg): 145%
3 | COc1cc([C@@H]2c3cc4c(cc3[C@@H](O[C@@H]3O[C@@H]5CO[C@@H](C)O[C@H]5[C@H](O)[C@H]3O)[C@H]3COC(=O)[C@H]23)OCO4)cc2c1OP(C)(CO)(CO)O2 [Example 2] | 21 µg/mL and 30 µg/mL | 9.8 µg/mL and 10.6 µg/mL | – | 74 µg/mL and 80 µg/mL | 74 µg/mL and 70 µg/mL | – | – | – | 76 µg/mL and 71 µg/mL | Greater effectiveness | Average Weight Change (P-388 murine leukemia; [9]): +2.6; Maximum Effect % T/C (P-388 murine leukemia; [9]): 305 % T/C
4 | COc1cc([C@@H]2c3cc4c(cc3[C@@H](O[C@@H]3O[C@@H]5CO[C@@H](C)O[C@H]5[C@H](O)[C@H]3O)[C@H]3COC(=O)[C@H]23)OCO4)cc2c1OP(CCC#N)(CCC#N)(CCC#N)O2 [Example 3, Etoposide-3',4'-Dioxa-Tris-(2-Cyanoethyl)Phosphorane] | 20 µg/mL and 22 µg/mL | 15.6 µg/mL and 14.3 µg/mL | 35 µg/mL and 56 µg/mL | 64 µg/mL and 99 µg/mL | 105 µg/mL and 79 µg/mL | – | – | – | 54 µg/mL and 56 µg/mL | Greater effectiveness | Average Weight Change (P-388 murine leukemia; [10]): +3.2; Maximum Effect % T/C (P-388 murine leukemia; [10]): 285 % T/C
5 | COc1cc([C@@H]2c3cc4c(cc3[C@@H](O[C@@H]3O[C@@H]5CO[C@@H](c6cccs6)O[C@H]5[C@H](O)[C@H]3O)[C@H]3COC(=O)[C@H]23)OCO4)cc(OC)c1O [Teniposide] | – | – | – | – | – | active | – | – | – | – | –
6 | Etoposide-Bis-(2-Chloroethyl)Phosphate, Mixture of 3' and 4'Regioisomers [Example 4] | 13.1 µg/mL and 20.7 µg/mL | – | 63 µg/mL and 82 µg/mL | 203 µg/mL and 168 µg/mL | 84 µg/mL | – | +0.2 | 150 % T/C | > 125 µg/mL and 97 µg/mL | – | –
